For assay [1], the system named is hPPAEC. Nature of the assay: Effects of CXCR4 agonists / CXCL12 variants on thrombin-induced impairment of hPPAEC monolayer permeability. It counts as cell-based, human. The protocol:
FIGS. 3A-3D show effects of CXCL12 and ubiquitin on thrombin-induced impairment of hPPAEC monolayer permeability. hPPAEC were grown to a confluent monolayer on collagen-coated permeable membranes. (A) hPPAEC were pre-treated with vehicle, 100 nM of CXCL12 or ubiquitin for 10 minutes, as indicated, and then exposed to thrombin (50 nM), followed by the addition of FITC-dextran. Vehicle: no thrombin. Endothelial permeability was assessed by measuring the amount of FITC-dextran that permeated through the cell monolayer. No cells: 100% permeability (open circles). RFU: Relative fluorescence units. N=3 in quadruplicate. *: p<0.05 vs. vehicle/thrombin. (B-D) hPPAEC were exposed to 35 nM of thrombin or vehicle. After 10 min, thrombin-exposed cells were treated with vehicle, CXCL12 (50 nM) and/or AMD3100 (10 μM) (B), with vehicle, ubiquitin (50 nM) and/or AMD3100 (10 μM) (C) or with various concentrations of ubiquitin (D) followed by the addition of FITC-dextran. The experimental conditions are indicated. Endothelial permeability was assessed by measuring the amount of FITC-dextran that permeated through the cell monolayer. RFU: Relative fluorescence units. N=3 in quadruplicate. *: p<0.05 vs. thrombin/vehicle (2-way ANOVA/Bonferroni's multiple comparison post hoc test).
FIGS. 7A-7D show dose-dependent effects of CXCL12α/β, CXCL12 (3-68) and CXCL12 mutants K27A/R41A/R47A, R47E and S-S4V on thrombin-induced impairment of hPPAEC monolayer permeability. hPPAEC cells were grown to a confluent monolayer on collagen-coated permeable membranes. hPPAEC were then exposed to 35 nM of thrombin. After 10 min, thrombin-exposed cells were treated with vehicle or 50 nM (A), 5 nM (B), 0.5 nM (C) or 0.05 nM (D) of the various proteins, as indicated. In (D) 5 nM CXCL12a was used as a positive control. N=3 in quadruplicate.
FIGS. 8A-8D show dose-dependent effects of CXCL12α, CXCL121 and CXCL122 on thrombin-induced impairment of hPPAEC monolayer permeability. hPPAEC cells were grown to a confluent monolayer on collagen-coated permeable membranes. hPPAEC were then exposed to 35 nM of thrombin. After 10 min, thrombin-exposed cells were treated with vehicle or 50 nM (A), 5 nM (B), 0.5 nM (C) or 0.05 nM (D) of the various proteins, as indicated. In (D) 5 nM CXCL12α was used as a positive control. N=3 in quadruplicate.
FIGS. 9A-9B show inhibition of thrombin-induced hyper-permeability of hPPAEC by CXCL12/CXCL12 variants. % inhibition: % inhibition of thrombin-induced hyperpermeability. Data from FIGS. 7 and 8 at t=255 min. N=3 in quadruplicate. *: p<0.05 vs. CXCL12a (2-way ANOVA/Bonferroni's multiple comparison post hoc test).
(§1) In vitro vascular permeability assays—Permeability assays were obtained from Millipore (ECM642) and performed as per manufacturer's instructions. In brief, 96-well collagen-coated permeability assay plates were pre-hydrated for 15 min, 5×10^5 cells were seeded on each well and grown to a confluent monolayer for 48 hours. Fluorescein isothiocyanate (FITC)-dextran (20 μg/mL) was then added on top of the monolayer and the amount of FITC-dextran that permeated through the monolayer was quantified by measuring fluorescence in a Synergy 2 Multi-mode Microplate Reader (BioTek, Winooski, Vt.) at various time points over a 255 min time period.

In the next assay the test system is HULEC-5a. Nature of the assay: Effects of CXCL12 and ubiquitin on thrombin-induced impairment of HULEC-5a monolayer permeability. The note with it: thrombin 50 nM, after 10 min 50 nM ligand. It counts as cell-based, human. Here is the method:
FIGS. 4A-4D show effects of CXCL12 and ubiquitin on thrombin-induced impairment of HULEC-5a monolayer permeability. (A) HULEC-5a were grown to a confluent monolayer on collagen-coated permeable membranes and then exposed to different concentration of thrombin for 10 min, followed by the addition of FITC-dextran. Endothelial permeability was assessed by measuring the amount of FITC-dextran that permeated through the cell monolayer. No cells: 100% permeability. RFU: Relative fluorescence units. N=3 in quadruplicate. (B) Dose-response curves for thrombin-induced permeability, data from A. 100% permeability=permeability in the absence of HULEC-5a. Open squares: Permeability at t=55 min. Light grey squares: Permeability at t=135 min. Dark grey squares: Permeability at t=255 min. […] Endothelial permeability was assessed by measuring the amount of FITC-dextran that permeated through the cell monolayer. RFU: Relative fluorescence units. […]
In vitro vascular permeability assays—Permeability assays were obtained from Millipore (ECM642) and performed as per manufacturer's instructions. […] Fluorescein isothiocyanate (FITC)-dextran (20 μg/mL) was then added on top of the monolayer and the amount of FITC-dextran that permeated through the monolayer was quantified by measuring fluorescence in a Synergy 2 Multi-mode Microplate Reader (BioTek, Winooski, Vt.) at various time points over a 255 min time period.

For assay [2], the system named is hPPAEC. In words: In vitro vascular permeability assay (FITC-dextran), hPPAEC monolayer, CXCR4/ACKR3 ligands without thrombin. The class given is cell-based, human. The note with it: 50 nM ligand for 10 min, then FITC-dextran; no thrombin. Here is the method: FIGS. 1A-1B show expression of CXCR4, ACKR3 and CXCR4:ACKR3 heteromers on hPPAEC and effects of CXCR4/ACKR3 ligands on hPPAEC monolayer permeability. (A) Detection of CXCR4, ACKR3 and CXCR4:ACKR3 heteromers on hPPAEC by PLA. Typical PLA images for the detection of individual receptors and CXCR4:ACKR3 heteromers. Images show merged PLA/40,6-diamidino-2-phenylindole dihydrochloride (DAPI) signals. Ctrl: Omission of one secondary antibody. (B) hPPAEC were grown to a confluent monolayer on collagen-coated permeable membranes. Cells were then exposed to vehicle or 50 nM of CXCR4/ACKR3 ligands for 10 minutes, as indicated, followed by the addition of FITC-dextran. Endothelial permeability was assessed by measuring the amount of FITC-dextran that permeated through the cell monolayer. N=3 in quadruplicate. No cells: 100% permeability, open squares. RFU: Relative fluorescence units. *: p<0.05 vs. vehicle (2-way ANOVA/Bonferroni's multiple comparison post hoc test).
Cells and cell lines—Human primary pulmonary artery endothelial cells (hPPAEC) (ATCC, PCS-100-022) and the human lung microvascular endothelial cell line HULEC-5a (ATCC, CRL-3244) were cultured in vascular cell basal medium (ATCC, PCS-100-030) with endothelial cell growth kit-VEGF (ATCC, PCS-100-041). The HTLA cell line, a HEK293 cell line stably expressing a tTA-dependent luciferase reporter and a β-arrestin2-TEV fusion gene, was generously provided by the laboratory of Dr. Bryan Roth and maintained in high glucose Dulbecco's Modified Eagle's Medium supplemented with 10% (vol/vol) FBS, 1× non-essential amino acids, 100 U/mL penicillin, 100 μg/mL streptomycin, 50 μg/mL hygromycin B, and 2 μg/mL puromycin. All cells were cultured at 37° C., 5% CO2 in a humidified atmosphere.
as §1

Assay [3] has as its system animal model of acute respiratory distress syndrome (ARDS). Nature of the assay: Animal model of ARDS: lung ischemia reperfusion injury plus hemorrhage (P:F ratio, lung injury score). It counts as in vivo, Sprague-Dawley rats. The note with it: 0.14 μmol/kg i.v. within 10 min after reperfusion; until t=300 min. The protocol: Animals underwent 70 min of […] lung ischemia for 70 min plus hemorrhage to a MAP of 40 mmHg for the last 30 min of ischemia, followed by fluid resuscitation to a MAP of 60 mmHg until t=300 min. Arrow: drug injection. Dashed lines indicate the P:F ratio (mmHg) threshold values for the diagnosis of mild, moderate and severe ARDS. Vehicle: n=5. CXCL12: n=3. CXCL12: n=4. CXCL12-LM: n=3, CXCL12-LD: n=4. CXCL12 K27A/R41A/R47A: n=3. LI+HEM: lung ischemia reperfusion injury plus hemorrhage. Data are mean±SEM. *: p<0.05 vs. vehicle (2-way ANOVA/Dunnett's multiple comparisons test).
FIGS. 12A-12C show lung histology after treatment with CXCL12 and engineered CXCR4 agonists A. Lung specimens were placed in formalin fixative solution and were then embedded in paraffin wax, sliced into 5 μm sections and stained with H&E. Representative images from H&E stained lung sections from animals after vehicle (left) and CXCL12 ([…], right treatment. B/C. Lung injury scores (B. uninjured (left) lung; C. injured (right) lung). Data are median±interquartile ranges. Data were analyzed with the Kruskal Wallis test with Dunn's multiple comparisons test. The level of statistical significance (p) vs. ctrl. (vehicle treatment) indicated.
We tested therapeutic efficacy of wild-type CXCL12, CXXL12-locked dimer (LD), CXCL12-locked monomer (LM) and the triple mutant CXCL12 K27A/R41A/R47A in an animal model of acute respiratory distress syndrome (ARDS) (FIG. 11). All drugs were injected in a dose of 0.14 μmol/kg. Male Sprague-Dawley rats were anesthetized, orotracheally intubated, instrumented with arterial/venous catheters, and mechanically ventilated (PEEP 2 mmHg, FiO2 1.0). After a right lateral thoracotomy, a suture was tied around the hilum of the right lung. Animals underwent 70 min of right lung ischemia plus hemorrhage to a mean arterial blood pressure (MAP) of 40 mmHg for the last 30 min of lung ischemia. At t=70 min, the suture was removed, animals were ventilated with FiO2 1.0, PEEP 5 mmHg and resuscitated with crystalloids to a MAP of 60 mmHg until t=300 min. Vehicle and drugs were injected i.v. within 10 min after reperfusion.
We further evaluated histomorphology of the lungs from animals treated with vehicle, wild-type CXCL12, CXCL12-LD and CXCXL12-LM utilizing a standardized lung injury score. Lung slides stained with hematoxylin and eosin were examined under a light microscope by 4 investigators blinded to the identity of the specimens. The lung injury score was assessed as previously described/. In brief each investigator rendered a score of 0 (no damage) to 4+(maximal damage) based on an injury grading scale composed of six criteria. The slides were assessed for the extent of alveolar congestion, hemorrhage and edema, as well as alveolar and vessel wall PMN infiltration and alveolar wall thickness. […] Lung injury scores of the uninjured and injured lungs from animals treated with vehicle, wild-type CXCL12, CXCL12-LD and CXCXL12-LM are shown in FIGS. […], respectively.

The target of a further assay is T1, ACKR3 (Homo sapiens, UniProt P25106).
T1 construct: host or cells: HTLA cells (HEK293 line stably expressing a tTA-dependent luciferase reporter and a β-arrestin2-TEV fusion gene)
In words: Presto-Tango β-arrestin 2 recruitment assay for ACKR3. It counts as cell-based. The protocol: (§2) FIGS. 6A-6F show Presto-Tango β-arrestin 2 recruitment assays for CXCR4 (A-C) and ACKR3 (D-F). RLU %: % of the luminescence signal for 1 μM CXCL12α. N=9 for CXCL12a and n=3 for all other proteins.
(§3) Presto-Tango β-arrestin 2 recruitment assay—The PRESTO-Tango (parallel receptorome expression and screening via transcriptional out-put, with transcriptional activation following arrestin translocation) assay was performed as recently described. The Tango plasmids were a gift from Dr. Bryan Roth (all from Addgene). HTLA cells (2.5×10^5/well) were seeded in a 6-well plate and transfected with 1.5 μg of the Tango plasmids using Lipofectamine 3000 (ThermoScientific). The following day, transfected HTLA cells (1×10^5 cells/well) were plated onto Poly-L-Lysine pre-coated 96-well micro-plates and allowed to attach to the plate surface for at least 4 hours prior to treatment. Proteins used for treatment were prepared in twice the final concentration in culture media, added at a 1:1 vol/vol ratio and incubated overnight at 37° C., 5% CO2 in a humidified environment. The following morning, media was removed from cell culture plates and replaced with a 100 μL 1:5 mixture of Bright-Glo (Promega) and 1×HBSS, 20 mM HEPES solution. Plates were then incubated at room temperature before measuring luminescence on a Biotek Synergy II plate reader.
(In general: Recruitment of arrestin is a read-out of receptor activation apart from second messengers.)

The next assay deals with T2, CXCR4 (Homo sapiens, UniProt P61073).
T2 construct: host or cells: HTLA cells (HEK293 line stably expressing a tTA-dependent luciferase reporter and a β-arrestin2-TEV fusion gene)
Nature of the assay: Presto-Tango β-arrestin 2 recruitment assay for CXCR4. The class given is cell-based. Here is the method: as §2, §3

“Also recorded” adds a separate entry of the source.

T2 sequence (P61073 whole entry, the tested form may be a part): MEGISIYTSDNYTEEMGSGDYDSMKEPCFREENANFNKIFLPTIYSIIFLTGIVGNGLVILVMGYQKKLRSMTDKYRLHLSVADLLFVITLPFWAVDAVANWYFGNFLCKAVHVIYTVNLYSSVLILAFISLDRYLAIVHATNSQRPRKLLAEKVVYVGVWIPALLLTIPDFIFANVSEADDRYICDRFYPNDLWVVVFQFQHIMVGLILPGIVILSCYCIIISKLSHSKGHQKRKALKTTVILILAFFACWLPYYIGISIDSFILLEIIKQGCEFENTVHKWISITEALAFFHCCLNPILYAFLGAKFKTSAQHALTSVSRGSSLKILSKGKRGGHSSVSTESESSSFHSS
T1 sequence (P25106 whole entry, the tested form may be a part): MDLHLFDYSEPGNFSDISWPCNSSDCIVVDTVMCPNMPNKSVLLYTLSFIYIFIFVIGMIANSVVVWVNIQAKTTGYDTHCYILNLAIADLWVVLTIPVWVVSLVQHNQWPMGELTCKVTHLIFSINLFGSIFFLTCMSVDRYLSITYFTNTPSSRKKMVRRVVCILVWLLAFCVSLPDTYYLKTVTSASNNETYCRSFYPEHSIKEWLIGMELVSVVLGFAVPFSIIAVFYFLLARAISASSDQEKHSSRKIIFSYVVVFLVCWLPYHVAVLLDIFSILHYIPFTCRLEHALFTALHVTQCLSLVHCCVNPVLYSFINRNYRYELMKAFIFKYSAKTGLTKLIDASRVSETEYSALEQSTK

As to ubiquitin, the “effect of pre-treatment on thrombin-induced hyper-permeability of hPPAEC” value in the assay with hPPAEC [1] (100 nM for 10 min, then thrombin (50 nM)) is reported as “significantly attenuated thrombin-induced hyper-permeability of hPPAEC”. Moreover, the “effect on thrombin-induced permeability of hPPAEC when added after thrombin” value with hPPAEC [1] (thrombin 35 nM, after 10 min CXCL12 or ubiquitin 50 nM, AMD3100 10 μM) is reported as “did not modulate thrombin-induced hyper-permeability”. Further, the “effect on thrombin-induced hyper-permeability at various concentrations” value in the assay on hPPAEC [1] (thrombin 35 nM, ubiquitin 30 nM-3 μM after thrombin) is on record as “did not attenuate thrombin-induced hyper-permeability”. Also, the “effect on thrombin-induced hyper-permeability, ubiquitin plus AMD3100” value in the assay on hPPAEC [1] (thrombin 35 nM, ubiquitin 50 nM plus AMD3100 10 μM) is given as “did not modulate thrombin-induced hyper-permeability”. The “effect on thrombin-mediated impairment of HULEC-5a barrier function when added after thrombin” value in the assay with HULEC-5a is recorded as “significantly reduced thrombin-mediated impairment of endothelial cell barrier function”. Moreover, in the assay with hPPAEC [2], the “effect on hPPAEC monolayer permeability” value is “did not affect hPPAEC permeability”.

B1: CXCL12 K27A/R41A/R47A: CXCL12 mutant with significantly reduced heparan sulfate proteoglycan binding properties (protein)
chain: KPVSLSYRCPCRFFESHVARANVKHLAILNTPNCALQIVAALKNNNAQVCIDPKLKWIQEYLEKALNK
modifications: ends and bridges not checked
For B1, the “potency to attenuate thrombin-induced permeability of hPPAEC (in words)” value in the assay on hPPAEC [1] is “same potency as wild type proteins and CXCL121”. Also, the “development of ARDS (P:F ratio)” value in assay [3] is given as “indistinguishable from vehicle treated animals”. Further, in the assay with ACKR3, the “EC50 (potency) for β-arrestin 2 recruitment to ACKR3” value is reported as “retained high potency to activate ACKR3”. Moreover, the “potency (EC50) to recruit β-arrestin 2 to CXCR4, compared with CXCL12α” value with CXCR4 was “significantly lower than the potency of CXCL12α; also recorded: lowest potency to activate CXCR4”.

The record behind these values is patent US20210052701A1, “Methods of Treating Vascular Leakage Using CXCL12 Peptides” (The Medical College of Wisconsin, Inc., priority 2018, published 2021).
